Read-outs that look alike come from different tables or passages of the source.
What was measured:
[1] = stability in DMSO/H2O (1:1, v/v) by HPLC-UV-MS; assay type: physicochemical; conditions: RP-HPLC
Experimental: The stability was determined analogously to the purity determination and as described in a previous publication.^[ [79] ^] Instead of CH3CN or MeOH, a solvent mixture of DMSO/H2O (1:1, v/v) was used for all samples, as well as the blank measurements. Measurements were conducted directly after solvent addition and up to three days (Figure S82–S89, Supporting Information).
5 Determi naƟon of the Stability of Compounds 2o,m,p, 3o,m,p, 4, and 5
The stability measurements have been performed with an HPLC-UV-MS on an RP column. Blank samples of pure DMSO/H20 (1:1, v/v) have been measured prior to the target compounds. The target compounds have been dissolved in DMSO/H2O (1:1, v/v) for stability determinaƟon. The measurements have been started directly aŌer the addiƟon of the water. The double peaks or shoulders of the signals of the compound are related to the column that has been used. Broad signals have been obser ved in case of the nido-carborane derivaƟves .
Figure S82. RP-HPLC chromatograms of blank (DMSO/H2O, black and dark blue) and compound 2o, retention time: 11.4 min, purity after 2.5 d: […]

[2] = biological target: T1, human CB2R (Homo sapiens, UniProt P34972); assay: in vitro binding affinity assay, membrane homogenates of CHO cells stably transfected with human CB2R, radioligand [3H]WIN55212-2; conditions: for Selectivity index (SI): SI = K iCB1R/K iCB2R; for Ki / K iCB2R mean: human CB2R, CHO membranes, [3H]WIN55212-2, mean of two values; for Ki: read-out: K iCB2R mean
T1 construct: expressed in transfected cells; host or cells: Chinese hamster ovary (CHO) cells, stably transfected; crude membrane homogenates
Description: (§1) The eight target compounds 2 o , m , p , 3 o , m , p , 4, and 5 have been investigated in in vitro binding affinity assays using crude membrane preparations obtained from Chinese hamster ovary cells stably transfected with either human CB1R or CB2R and the target‐specific radioligands [ ^ 3 H]SR141716A and [ ^ 3 H]WIN55212‐2, respectively (structures shown in Figure S90, Supporting Information).
(§2) The affinity assays have been performed with membrane homogenates from Chinese hamster ovary cells (CHO) stably transfected either with human CB2R or CB1R. Already published protocols have been used.^[ [99] ^]

[3] = biological target: T2, human CB1R (Homo sapiens, UniProt P21554); assay: in vitro binding affinity assay, membrane homogenates of CHO cells stably transfected with human CB1R, radioligand [3H]SR141716A; conditions: CHO membranes, mean of two values (c: mean of three values), read-out: K iCB1R mean
T2 construct: expressed in transfected cells; host or cells: Chinese hamster ovary (CHO) cells, stably transfected; crude membrane homogenates
Description: as §1, §2

[4] = biological target: CB2R; set-up: method as in PMID 25272206; conditions: mean of at least three separate experiments in duplicate, other testing conditions; read-out: K iCB2R mean; cited from earlier work
[5] = biological target: CB1R; set-up: method as in PMID 25272206; conditions: mean of at least three separate experiments in duplicate, other testing conditions; read-out: K iCB1R mean; cited from earlier work
[6] = tested on: CB2R; assay: CB2R binding affinity, literature value of Lucchesi et al., other testing conditions; conditions: SI = K iCB1R/K iCB2R, from literature values
Description: Table 1 Binding affinities of target compounds 2 o , m , p , 3 o , m , p , 4, and 5. | column: Selectivity index (SI) ^e)

[7] = biological target: CB2R; set-up: method as in PMID 36944112; conditions: previously reported; L7 (ortho): one value; read-out: K iCB2R mean; cited from earlier work

T1 sequence (P34972 whole entry): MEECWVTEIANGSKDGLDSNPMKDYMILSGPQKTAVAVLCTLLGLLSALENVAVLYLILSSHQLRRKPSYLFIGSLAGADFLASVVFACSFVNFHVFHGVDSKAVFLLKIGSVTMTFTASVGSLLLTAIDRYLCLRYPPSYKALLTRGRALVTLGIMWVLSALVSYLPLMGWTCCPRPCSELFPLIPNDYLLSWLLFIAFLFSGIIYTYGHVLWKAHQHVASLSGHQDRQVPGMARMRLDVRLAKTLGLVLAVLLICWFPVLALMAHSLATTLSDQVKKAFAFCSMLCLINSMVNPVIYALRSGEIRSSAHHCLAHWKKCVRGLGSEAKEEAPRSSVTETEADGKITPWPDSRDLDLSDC
T2 sequence (P21554 whole entry): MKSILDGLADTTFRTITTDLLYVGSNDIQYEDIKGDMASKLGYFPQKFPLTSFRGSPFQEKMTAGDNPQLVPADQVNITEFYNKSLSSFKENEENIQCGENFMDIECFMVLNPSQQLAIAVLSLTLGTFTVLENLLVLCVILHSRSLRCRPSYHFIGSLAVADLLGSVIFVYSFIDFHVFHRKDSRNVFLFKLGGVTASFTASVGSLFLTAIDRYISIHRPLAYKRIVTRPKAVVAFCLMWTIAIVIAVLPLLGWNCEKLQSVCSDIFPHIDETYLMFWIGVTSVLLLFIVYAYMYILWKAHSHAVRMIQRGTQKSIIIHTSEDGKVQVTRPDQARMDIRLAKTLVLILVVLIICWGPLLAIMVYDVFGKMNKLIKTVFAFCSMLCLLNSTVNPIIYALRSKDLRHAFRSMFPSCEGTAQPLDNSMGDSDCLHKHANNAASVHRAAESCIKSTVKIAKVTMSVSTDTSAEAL

Row | Molecule | Selectivity index (SI) [2] | Ki [2] [nM] | Ki [3] [nM] | purity after 1 d (stability) [1] | also measured
1 | 6‐Bromo‐1‐(4‐fluorobenzyl)‐2‐oxo‐N‐(1,2‐closo‐dicarba‐dodecaborane)‐1,2‐dihydro‐1,8‐naphthyridine‐3‐carboxamide [2 o] | 3378 | 29 | 97800 |  | purity after 2.5 d (stability) ([1]; after 2.5 d): > 98%
2 | Sodium 6‐Bromo‐1‐(4‐fluorobenzyl)‐2‐oxo‐N‐(7,8‐nido‐dicarba‐dodecahydroundecaborate(–1))‐1,2‐dihydro‐1,8‐naphthyridine‐3‐carboxamide [Compound 4] | 62 | 857 | 53200 |  | purity after 3 d (stability) ([1]; after 3 d): ~ 98%; K iCB2R mean [2]: very low affinity
3 | 1‐(4‐Fluorobenzyl)‐6‐iodo‐2‐oxo‐N‐(1,2‐closo‐dicarba‐dodecaborane)‐1,2‐dihydro‐1,8‐naphthyridine‐3‐carboxamide [3 o] | 260 | 15.2 | 3940 |  | purity after 6 h (stability) [1]: 93%; purity after 6 h (stability) ([1]; listed as 3o): ~ 93%
4 | Sodium 1‐(4‐Fluorobenzyl)‐6‐iodo‐2‐oxo‐N‐(7,8‐nido‐dicarba‐dodecahydroundecaborate(–1))‐1,2‐dihydro‐1,8‐naphthyridine‐3‐carboxamide [Compound 5] | 247 | 368 | 90800 | > 97% | K iCB2R mean [2]: very low affinity
5 | 1‐(4‐Fluorobenzyl)‐6‐iodo‐2‐oxo‐N‐(1,7‐closo‐dicarba‐dodecaborane)‐1,2‐dihydro‐1,8‐naphthyridine‐3‐carboxamide [3 m] | 877 | 6.95 | 6090 | ~ 98% | 
6 | 1‐(4‐Fluorobenzyl)‐6‐iodo‐2‐oxo‐N‐(1,12‐closo‐dicarba‐dodecaborane)‐1,2‐dihydro‐1,8‐naphthyridine‐3‐carboxamide [3 p] | 730 | 7.55 | 5520 | > 98% | 
7 | 6‐Bromo‐1‐(4‐fluorobenzyl)‐2‐oxo‐N‐(1,7‐closo‐dicarba‐dodecaborane)‐1,2‐dihydro‐1,8‐naphthyridine‐3‐carboxamide [2 m] | 273 | 6.16 | 1680 | ~ 98% | 
8 | C[C@H]1CC[C@@H](NC(=O)c2cc3cc(Br)cnc3n(Cc3ccc(F)cc3)c2=O)CC1 [L1 (cis)] |  |  |  |  | Ki [4]: 0.12 ± 0.002 nM; Ki [5]: 121 ± 5.32 nM; Selectivity index (SI) [6]: 1010
9 | (Z)‐N‐[3‐(4‐fluoro[^18F]butyl‐d 8)‐4,5‐dimethylthiazole‐2(3 H)‐ylidene]‐(1,7‐dicarba‐closo‐dodecaboranyl)‐carboxamide [[18F]LUZ5-d8] |  |  |  |  | Ki [7]: 0.8 nM
10 | 6‐Bromo‐1‐(4‐fluorobenzyl)‐2‐oxo‐N‐(1,12‐closo‐dicarba‐dodecaborane)‐1,2‐dihydro‐1,8‐naphthyridine‐3‐carboxamide [2 p] | 937 | 7.71 | 7220 |  | 

Reference: publication PMC12444839, “Development of Carborane‐Based Halogenated Naphthyridinone‐Analogues as Cannabinoid Receptor Type 2 (CB2R) Ligands” (Chemmedchem, 2025)
